Laboratory results published in patent publication US20210030757A1, “METHOD OF TREATMENT AND COMPOSITIONS COMPRISING A DUAL P13K DELTA-GAMMA KINASE INHIBITOR AND A CORTICOSTEROID” (priority 2014, published 2021).

Legend:
[1] = system: MKP-1; assay: MKP-1 mRNA expression in peripheral neutrophils from COPD patients (RT-PCR); assay type: cell-based, human; details: CSE 5%; 10 nM or 100 nM Compound A
Protocol: (§1) Measurement of basal RNA expression of corticosteroid resistant mediators: Total RNA was isolated from peripheral human neutrophils from COPD patients in basal conditions and after experimental conditions. Cells were homogenized and RNA was extracted using TriPure® Isolation Reagent (Roche, Indianapolis, USA). The reverse transcription was performed in 300 ng of total RNA with TaqMan reverse transcription reagents kit (Applied Biosystems, Perkin-Elmer Corporation, CA, USA). 1.5 μl of result cDNA was amplified with specific predesigned primers (Applied Biosystems) for MIF (cat no Hs00236988), MKP-1 (cat no Hs00610256), PI3K-δ (cat n° Hs00192399), PI3Kγ (cat n° Hs00277090) and GAPDH (cat no 4310884E) as endogenous control in a 7900HT Fast Real-Time PCR System (Applied Biosystem) using Universal Master Mix (Applied Biosystems). Relative quantification of these different transcripts was determined with the 2^−ΔΔct method and normalized to control groups.
(§2) mRNA expression of the MIF, MKP-1, PI3K-δ and PI3Kγ genes was measured in basal conditions and at the end of the experiments.
(§3) Experiments were done in triplicate in at least three patients per experimental condition.

[2] = system: Balb/c mice; assay: Reversal of corticosteroid insensitivity in chronic cigarette smoke induced cell infiltration in male Balb/c mice; assay type: in vivo; details: Mus musculus, Macrophage, inhaled or nasal; murine chronic COPD model; intranasal; read-out: ED50 (cell count in BAL, macrophage infiltration)
Protocol: Animals were acclimatized for seven days prior to the start of the experiment. Animals were randomly distributed to various groups based on their body weights. Mice were exposed to the mainstream smoke of 2 cigarettes from day 1 to day 11. Exposure to the smoke of each cigarette lasted for 10 min (each cigarette was completely burned in the first two minutes, followed by an air flow with animal ventilator) and were exposed for the next 20 min with fresh room air. After every second cigarette an additional break of 20 min with exposure to fresh room air was conducted. Control animals were exposed to the room air chamber. Corticosteroid, fluticasone was administered by intranasal route from day 6 to day 11 before 30 mins whole body smoke exposure. Mice were exposed to the mainstream smoke of 1 cigarette from day 12 to day 14. […] The total number of white blood cells was determined in BAL fluid and blood using a blood cell counter and adjusted to 1×10^6 cell/ml. Differential cell count was calculated manually. […] The number of each cell type among 300 white blood cells in the cell smear was determined and expressed as a percentage, and the number of neutrophils and macrophages in each BAL fluid were calculated. In addition BAL supernatant were analysed for various cytokines using ELISA assay.

[3] = system: human neutrophils from healthy volunteers; assay: CSE-induced IL-8 release in peripheral blood neutrophils from healthy non-smokers; assay type: cell-based; details: stimulus CSE 5%, 6 h, mean ± SEM; for IC50: Homo sapiens, Neutrophil, read-out: −log IC50 (IL-8 release) (converted)
Protocol: (§4) Neutrophils were isolated from peripheral venous blood by standard laboratory procedures. In brief, peripheral venous blood was mixed with dextran 500 at 3% (in 0.9% saline) in a proportion of 2:1. This mixture was incubated at room temperature for 30 min until erythrocytes were sedimented. The upper phase was carefully collected and added on Ficoll-Paque Histopaque 1077 (Amershan Pharmacia Biotech, Barcelona, Espana) density gradient in a proportion of 3:1. The two phases generated were centrifuged at 150 g, 4° C. for 30 min. Thus, the pellet obtained (which is consisted a mixture of neutrophils and low proportion of residual erythrocytes and traces of eosinophils and basophils) was resuspended in an erythrocyte lysis buffer (Biolegend, UK) for 5 min in ice. Cell suspension was washed two times with phosphate buffer (PBS). […] Neither purity nor viability was affected in the study's different experimental conditions.
(§5) CSE was prepared as follows: Briefly, the smoke of a research cigarette (2R4F; Tobacco Health Research, University of Kentucky, Ky., USA) was generated by a respiratory pump (Apparatus Rodent Respirator 680; Harvard, Germany) through a puffing mechanism related to the human smoking pattern (3 puff/min; 1 puff 35 ml; each puff of 2 s duration with 0.5 cm above the filter) and was bubbled into a flask containing 25 ml of pre-warmed (37° C.) Roswell Park Memorial Institute (RPMI)-1640 culture medium. The CSE solution was sterilized by filtration through a 0.22-μm cellulose acetate sterilizing system (Corning, N.Y.). The resultant CSE solution was considered to be 100% CSE and was used for experiments within 30 min of preparation. CSE 10% corresponds approximately to the exposure associated with smoking two packs per day. The quality of the prepared CSE solution was assessed based on the absorbance at 320 nm, which is the specific absorption wavelength of peroxynitrite. Stock solutions with an absorbance value of 3.0±0.1 were used. To test for cytotoxicity from CSE, isolated neutrophils were treated with CSE concentrations of up to 5% for […].
(§6) Isolated human neutrophils from healthy volunteers and COPD patients were incubated with Compound A (0.01 nM-100 μM) and Dexamethasone (0.1 nM-1 μM) or vehicle for 30 minutes before incubation with or without CSE 5% for 6 hours in standard cell culture conditions (37° C. and 5% CO2). Supernatants were collected to measure different inflammatory markers.
(§7) IL-8 was measured by ELISA using a commercially available kit.
(§8) Experiments were done in triplicate in […] three patients per experimental condition.
(§9) Neutrophils from healthy and COPD patients were stimulated with CSE 5% in the presence of Compound A (0.01 nM-100 μM) or dexamethasone (DEX; 0.1 nM-1 μM) for 6 h and IL-8 supernatants were measured.

[4] = system: PI3Kγ; assay: PI3Kγ mRNA expression in peripheral neutrophils from COPD patients (RT-PCR); assay type: cell-based, human; details: CSE 5%; 10 nM or 100 nM Compound A
Protocol: as §1, §2, §3

[5] = system: human neutrophils from COPD patients; assay: CSE-induced IL-8 release in peripheral blood neutrophils from COPD patients; assay type: cell-based; details: stimulus CSE 5%, 6 h, mean ± SEM; for IC50: Homo sapiens, Neutrophil, read-out: −log IC50 (IL-8 release) (converted)
Protocol: as §4, §5, §6, §7, §8, §9

[6] = system: MIF; assay: MIF mRNA expression in peripheral neutrophils from COPD patients (RT-PCR); assay type: cell-based, human; details: CSE 5%; Compound A exposure
Protocol: as §1, §2, §3

[7] = system: PI3K; assay: PI3K activity (PIP3 production, PI3-Kinase Activity ELISA) in neutrophils from COPD patients; assay type: cell-based, human; details: Compound A 10 nM, 1 h, CSE 5% 30 min
Protocol: Measurement of Pi3K isoforms: To measure PI3K activity, neutrophils from COPD patients were isolated and incubated with Compound A at 10 nM for 1 h. Then cells were stimulated with CSE 5% for 30 min. After cell stimulation, neutrophils were centrifuged and total protein was extracted from neutrophils. Total protein amount was measured using The Bio-Rad assay (Bio-Rad Laboratories Ltd., Herts, UK) to ensure equal amount. PI3K activity was measured using the PI3-Kinase Activity ELISA: Pico (cat. no k-1000 s, Echelon Bioscience, Salt Lake City, USA) according to the manufacturer's protocol. In brief, PI3-K reactions were run with the Class I PI3-K physiological substrate PI(4,5)P2 (PIP2). The enzyme reactions, PIP3 standards and controls were then mixed and incubated with PIP3 binding protein that is highly specific and sensitive to PIP3. This mixture was then transferred to a PIPI3-coated microplate for competitive binding. Afterwards, a peroxidase-linked secondary detector and colorimetric detection was used to detect the amount of PIP3 produced by PI3-K through comparing the enzyme reactions with a PIP3 standard curve.
as §3

[8] = system: Balb/c mice; assay: Chronic cigarette smoke induced cell infiltration in male Balb/c mice (BALF cells and cytokines); assay type: in vivo
Protocol: Animals were acclimatized for seven days prior to the start of the experiment. Animals were randomly distributed to various groups based on their body weights. Mice were exposed to the mainstream smoke of 2 cigarettes from day 1 to day 11. Exposure to the smoke of each cigarette lasted for 10 min (each cigarette was completely burned in the first two minutes, followed by an air flow with animal ventilator) and were exposed for the next 20 min with fresh room air. After every second cigarette an additional break of 20 min with exposure to fresh room air was conducted. Control animals were exposed to the room air chamber. Test compound was administered by the intranasal route as suspension from day 12 to day 14 before 30 mins whole body smoke exposure. Mice were exposed to the mainstream smoke of 1 cigarette from day 12 to day 14. On day 15, 24 hours after the last cigarette smoke (CS) exposure animals were exsanguinated under anaesthesia, and the trachea was cannulated and the lungs were lavaged with 0.5 ml aliquots of heparinised PBS (1 unit/ml) four times through tracheal cannula (total volume 2 ml). Bronchioalveolar (BAL) collected was stored at 2-8° C. until assayed for total cell and differential leukocyte count. BAL fluid was centrifuged (500×g for 10 min) and the resulting cell pellet was resuspended in 0.5 ml of heparinised saline. The total number of white blood cells was determined in BAL fluid and blood using a blood cell counter and adjusted to 1×10^6 cell/ml. Differential cell count was calculated manually. Forty microliters of the cell suspension was centrifuged using cytospin 3 to prepare a cell smear. The cell smear was stained with a blood staining solution for differentiation and microscopically observed by identifying each cell according to its morphological characteristics. The number of each cell type among 300 white blood cells in the cell smear was determined and expressed as a percentage, and the number of neutrophils and macrophages in each BAL fluid were calculated. In addition BAL supernatant were analysed for various cytokinines using ELISA assay.

CC(C)Oc1ccc(-c2nn([C@@H](C)c3oc4cccc(F)c4c(=O)c3-c3cccc(F)c3)c3ncnc(N)c23)cc1F [Compound A] was tested, and the “expression of MKP1 (mRNA)” value [1] was “increased the expression of MKP1 near to control levels”, the ED50 [2] was 0.093 mg/kg and the IC50 [3] was 295 nM. The “Maximal % Inhibition of IL-8 release” value [3] was 97.4±5.3%, the “CSE induced PI3Kγ expression (mRNA)” value [4] was “significant reduction” and the IC50 [5] was 47.9 nM. For the same compound, the “Maximal % Inhibition of IL-8 release” value [5] was 85.14%, the “expression of MIF (mRNA)” value [6] was “not significantly affected” and the “PI3K activity measured as PIP3 production” value [7] was “completely suppressed”. The “Macrophage count in BAL fluid” value ([8]; 0.003-3 mg/kg intranasal, day 12 to 14, vs disease controls) was “significantly reduced toward normal”, the “IFNγ in BALF (% inhibition)” value ([8]; dose 0.003 mg/kg intranasal) was 0% and the “IL-6 in BALF (% inhibition)” value ([8]; dose 0.003 mg/kg intranasal) was 11%. For the same compound, the “IL-12/IL-23 in BALF (% inhibition)” value ([8]; dose 0.003 mg/kg intranasal) was 0%, the “TNFα in BALF (% inhibition)” value ([8]; dose 0.003 mg/kg intranasal) was 17% and the “IFNγ in BALF (% inhibition)” value ([8]; dose 0.03 mg/kg intranasal) was 25%. The “IL-6 in BALF (% inhibition)” value ([8]; dose 0.03 mg/kg intranasal) was 44%, the “IL-12/IL-23 in BALF (% inhibition)” value ([8]; dose 0.03 mg/kg intranasal) was 0% and the “TNFα in BALF (% inhibition)” value ([8]; dose 0.03 mg/kg intranasal) was 40%. For the same compound, the “IFNγ in BALF (% inhibition)” value ([8]; dose 0.3 mg/kg intranasal) was 90%, the “IL-6 in BALF (% inhibition)” value ([8]; dose 0.3 mg/kg intranasal) was 99% and the “IL-12/IL-23 in BALF (% inhibition)” value ([8]; dose 0.3 mg/kg intranasal) was 100%. For the same compound, the “TNFα in BALF (% inhibition)” value ([8]; dose 0.3 mg/kg intranasal) was 99%.
In the case of C[C@@H]1C[C@H]2[C@@H]3CCC4=CC(=O)C=C[C@]4(C)[C@@]3(F)[C@@H](O)C[C@]2(C)[C@@]1(O)C(=O)CO [dexamethasone, reference compound], the IC50 [3] is reported as 14.1 nM, the “Maximal % Inhibition of IL-8 release” value [3] is reported as 83.9% and the IC50 [5] is reported as 13.5 nM. For the same compound, the “Maximal % Inhibition of IL-8 release” value [5] was 19.84 ± 11.46 %.
